Results published in PubChem BioAssay AID2060602 (Molecular Pharmacology Branch, DTP, NCI, 2025).
Where “and” joins values, the source holds several entries; their conditions need not be identical. Identical values can stand only once. Values belong to the molecule of their own block, whether it stands above or below them.

Tested on: 648629-189-R-J1-PDC complex spheroids viability
Test: Anticancer human tumor 648629-189-R-J1-PDC patient-derived bladder carcinoma cell line growth inhibition [CLK]
Settings: for viability, T/C: stronger effect = lower value
From the text: A high-throughput screen of multi-cell type tumor spheroids was designed to identify active combinations of […] and targeted small molecules. Complex spheroids include a stromal component modeled by human endothelial cells (HUVEC) and fibroblasts modeled by human mesenchymal stem cells (MSCs). The concentration ranges selected for each drug and investigational agent were based upon clinically achievable concentrations if the clinical Cmax of the agent was known.
Compounds. The drugs and investigational agents: cirtuvivint (SM08502; NSC835563), CC-671 (NSC850746), vemurafenib (NSC761431), tapotoclax (NSC804041), sotorasib (NSC818433), adagrasib (NSC831453), MRTX-1133 (NSC836407), BAY2416964 (NSC825713), copanlisib (NSC816437), inavolisib (NSC800729), abemaciclib (NSC768073), osimertinib (NSC779217), entinostat (NSC756642), eltanexor (KPT-8602, NSC794443), venetoclax (NSC766270), ceralasertib (NSC777638), bortezomib (NSC756655), olaparib (NSC753686), talazoparib (NSC767125), alisertib (NSC759677), peposertib (NSC802822), gemcitabine (NSC613327), 5-fluorouracil (NSC19893), SN-38 (NSC673596), oxaliplatin (NSC266046), paclitaxel (NSC125973), and doxorubicin (NSC123127), were obtained from the National Cancer Institute (NCI) Developmental Therapeutics Program Chemical Repository. The FDA-approved anticancer drug set is available from the Developmental Therapeutics Program at https://dtp.cancer.gov/organization/dscb/obtaining/available plates.htm. […] The stock solutions were prepared in dimethyl sulfoxide (DMSO, Sigma-Aldrich, St. Louis, MO, cat. D2650), except for the platinum complexes which were prepared in saline (Quality Biological, Gaithersburg, MD, cat. 114-055-101), at 800-fold the tested concentration and stored at -70 degrees C prior to their use. All drugs and investigational agents were tested over a range starting from a high concentration at or near the clinical Cmax and decreasing in half-log increments. If the clinical Cmax for an agent had not been determined, the highest concentration tested was 10 microM.
Cell Culture. All cells were maintained in an incubator at 37 degrees C and 5% CO2 with 95% humidity. The PDC lines were cultured according to standard operating procedures established by the NCI PDMR. Briefly, all PDCs were thawed and cultured in Matrigel-coated flasks prepared with a working solution of 1X Ham's F-12 nutrient mix, without supplementation (Invitrogen, Waltham, MA, cat. 11765054), 100 U/mL penicillin-streptomycin (Invitrogen, cat. 15140122), and 2.5% Matrigel (Corning Inc., Corning, NY, cat. 354248) for the first three passages. The 947758-054-R-J2-PDC line was cultured in 6B/Colon 1A media, which includes advanced DMEM/F-12 (Thermo Fisher Scientific, cat. 12634028), 10 mM HEPES (Thermo Fisher Scientific, cat. 15630080), 1X GlutaMAX supplement (Thermo Fisher Scientific, cat. 35050061), 0.1 mg/mL primocin (InvivoGen, cat. ant-pm-2), 10% defined fetal bovine serum, heat inactivated (HyClone Laboratories Inc., cat. SH30070.03HI), 1.25 mM N-Acetyl-L-cysteine (Sigma-Aldrich, cat. A9165), 10 mM nicotinamide (Sigma-Aldrich, cat. N0636), 1X B-27 supplement (Thermo Fisher Scientific, cat. 17504044), 1X N-2 supplement (Thermo Fisher Scientific, cat. 17502048), and 10 microM Y-27632 dihydrochloride (Tocris Bioscience, cat. 1254). The 876862-298-R-J1-PDC was cultured in 6E media, which includes all 6B/Colon 1A media components plus 50% L-WRN conditioned media (ATCC, cat. CRL-3276), 50 ng/mL recombinant human EGF recombinant protein (hEGF; Thermo Fisher Scientific, cat. PHG0311), 10 ng/mL recombinant human fibroblast growth factor 10 (hGFG-10; PeproTech, cat. 100-26), 1 ng/mL recombinant human fibroblast growth factor 2 (hFGF-2; PeproTech, cat. 100-18B), and 1 µM prostaglandin E2 (PGE2; Tocris, cat. 2296). The 227483-062-R1-J1-PDC line was cultured in Panc media, containing all 6E components except hFGF-2, with the addition of 500 nM SB-431542 (Selleckchem, cat. S1067) and 10 nM gastrin (Tocris, cat. 3006). […]

[1] = curve of first compound, second compound 0.0316 µM
[2] = curve of first compound, second compound 0.1 µM
[3] = curve of first compound, second compound 0.316 µM
[4] = curve of first compound, second compound 1 µM
[5] = curve of first compound, second compound 3.16 µM
[6] = curve of first compound, second compound 10 µM
[7] = second compound 0.0316 µM, first compound 0.0316 µM
[8] = second compound 0.0316 µM, first compound 0.1 µM
[9] = second compound 0.0316 µM, first compound 0.316 µM
[10] = second compound 0.0316 µM, first compound 1 µM
[11] = second compound 0.1 µM, first compound 0.0316 µM
[12] = second compound 0.1 µM, first compound 0.1 µM
[13] = second compound 0.1 µM, first compound 0.316 µM
[14] = second compound 0.1 µM, first compound 1 µM
[15] = second compound 0.316 µM, first compound 0.0316 µM
[16] = second compound 0.316 µM, first compound 0.1 µM
[17] = second compound 0.316 µM, first compound 0.316 µM
[18] = second compound 0.316 µM, first compound 1 µM
[19] = second compound 1 µM, first compound 0.0316 µM
[20] = second compound 1 µM, first compound 0.1 µM
[21] = second compound 1 µM, first compound 0.316 µM
[22] = second compound 1 µM, first compound 1 µM
[23] = second compound 3.16 µM, first compound 0.0316 µM
[24] = second compound 3.16 µM, first compound 0.1 µM
[25] = second compound 3.16 µM, first compound 0.316 µM
[26] = second compound 3.16 µM, first compound 1 µM
[27] = second compound 10 µM, first compound 0.0316 µM
[28] = second compound 10 µM, first compound 0.1 µM
[29] = second compound 10 µM, first compound 0.316 µM
[30] = second compound 10 µM, first compound 1 µM
[31] = second compound 0.0316 µM, first compound 3.16 µM
[32] = second compound 0.0316 µM, first compound 10 µM
[33] = second compound 0.1 µM, first compound 3.16 µM
[34] = second compound 0.1 µM, first compound 10 µM
[35] = second compound 0.316 µM, first compound 3.16 µM
[36] = second compound 0.316 µM, first compound 10 µM
[37] = second compound 1 µM, first compound 3.16 µM
[38] = second compound 1 µM, first compound 10 µM
[39] = second compound 3.16 µM, first compound 3.16 µM
[40] = second compound 3.16 µM, first compound 10 µM
[41] = second compound 10 µM, first compound 3.16 µM
[42] = second compound 10 µM, first compound 10 µM
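Wherever viability, T/C is given: drug exposure lasted seven days before viability readout; 100% = DMSO vehicle control wells.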

IC50 (curve of compound): < 31.6 nM
SMILES: Nc1ccn(C2OC(CO)C(O)C2(F)F)c(=O)n1 (stereo not drawn)
viability, T/C (compound 0.0316 µM): 49.6% and 38.5% | viability, T/C (compound 0.1 µM): 18.4% and 12.3% | viability, T/C (compound 0.316 µM): 11.4% and 11% | viability, T/C (compound 1 µM): 6.88% and 9.43% | viability, T/C (compound 3.16 µM): 6.14% and 8.17% | viability, T/C (compound 10 µM): 4.28% and 6.46%

IC50 [1]: 92.8 nM | IC50 [2]: 93 nM | IC50 [3]: < 3.16 nM | IC50 [4]: < 3.16 nM | IC50 [5]: < 3.16 nM | IC50 [6]: < 3.16 nM
SMILES: COc1c(OCCCN2CCOCC2)ccc2c3n(c(=NC(=O)c4cnc(N)nc4)nc12)CCN3 + CNC(=O)c1ccc(Nc2nc(OC3CCCC3)c3c(-c4ccc5nc(C)oc5c4)c[nH]c3n2)c(OC)c1
viability, T/C (second compound 0.0316 µM, first compound 0.00316 µM): 94.5% | viability, T/C (second compound 0.0316 µM, first compound 0.01 µM): 92.6% | viability, T/C [7]: 88.2% | viability, T/C [8]: 46.9% | viability, T/C [9]: 15.3% | viability, T/C [10]: 8.61% | viability, T/C (second compound 0.1 µM, first compound 0.00316 µM): 101% | viability, T/C (second compound 0.1 µM, first compound 0.01 µM): 105% | viability, T/C [11]: 80.6% | viability, T/C [12]: 49.1% | viability, T/C [13]: 17.6% | viability, T/C [14]: 8.37% | viability, T/C (second compound 0.316 µM, first compound 0.00316 µM): 30.4% | viability, T/C (second compound 0.316 µM, first compound 0.01 µM): 31.4% | viability, T/C [15]: 34.1% | viability, T/C [16]: 31.3% | viability, T/C [17]: 17.9% | viability, T/C [18]: 8.81% | viability, T/C (second compound 1 µM, first compound 0.00316 µM): 19.9% | viability, T/C (second compound 1 µM, first compound 0.01 µM): 19.9% | viability, T/C [19]: 16.1% | viability, T/C [20]: 14.5% | viability, T/C [21]: 11.1% | viability, T/C [22]: 5.6% | viability, T/C (second compound 3.16 µM, first compound 0.00316 µM): 16.3% | viability, T/C (second compound 3.16 µM, first compound 0.01 µM): 15.8% | viability, T/C [23]: 16.1% | viability, T/C [24]: 11.2% | viability, T/C [25]: 7.88% | viability, T/C [26]: 4.37% | viability, T/C (second compound 10 µM, first compound 0.00316 µM): 19.9% | viability, T/C (second compound 10 µM, first compound 0.01 µM): 18.3% | viability, T/C [27]: 16.9% | viability, T/C [28]: 13.4% | viability, T/C [29]: 9.26% | viability, T/C [30]: 5.85%

IC50 [1]: 1590 nM | IC50 [2]: 1560 nM | IC50 [3]: < 31.6 nM | IC50 [4]: < 31.6 nM | IC50 [5]: < 31.6 nM | IC50 [6]: < 31.6 nM
SMILES: Nc1ccccc1NC(=O)c1ccc(CNC(=O)OCc2cccnc2)cc1 + CNC(=O)c1ccc(Nc2nc(OC3CCCC3)c3c(-c4ccc5nc(C)oc5c4)c[nH]c3n2)c(OC)c1
viability, T/C [7]: 104% | viability, T/C [8]: 93.5% | viability, T/C [9]: 96.7% | viability, T/C [10]: 63.9% | viability, T/C [31]: 27.1% | viability, T/C [32]: 0.72% | viability, T/C [11]: 86.6% | viability, T/C [12]: 90.8% | viability, T/C [13]: 82.4% | viability, T/C [14]: 65.1% | viability, T/C [33]: 26.2% | viability, T/C [34]: 0.23% | viability, T/C [15]: 30.3% | viability, T/C [16]: 22.9% | viability, T/C [17]: 27.1% | viability, T/C [18]: 27.5% | viability, T/C [35]: 17.8% | viability, T/C [36]: 0.7% | viability, T/C [19]: 17.4% | viability, T/C [20]: 19.8% | viability, T/C [21]: 20.5% | viability, T/C [22]: 18.4% | viability, T/C [37]: 12.6% | viability, T/C [38]: 0.5% | viability, T/C [23]: 18.9% | viability, T/C [24]: 18.3% | viability, T/C [25]: 19.3% | viability, T/C [26]: 18.5% | viability, T/C [39]: 16.4% | viability, T/C [40]: 0.52% | viability, T/C [27]: 21.7% | viability, T/C [28]: 16.4% | viability, T/C [29]: 19.5% | viability, T/C [30]: 23.9% | viability, T/C [41]: 15.6% | viability, T/C [42]: 1.56%

SMILES: C#Cc1c(F)ccc2cc(O)cc(-c3ncc4c(N5CC6CCC(C5)N6)nc(OCC56CCCN5CC(F)C6)nc4c3F)c12 (stereo not drawn) + CN1CCN(c2cc(C(=O)Nc3cc4cc(-c5cnn(C)c5)ccc4cn3)ccn2)CC1
IC50 [1]: > 10000 nM | IC50 [2]: > 10000 nM | IC50 [3]: 3620 nM | IC50 [4]: < 31.6 nM | IC50 [5]: < 31.6 nM | IC50 [6]: < 31.6 nM | viability, T/C [7]: 122% | viability, T/C [8]: 113% | viability, T/C [9]: 103% | viability, T/C [10]: 122% | viability, T/C [31]: 118% | viability, T/C [32]: 105% | viability, T/C [11]: 102% | viability, T/C [12]: 104% | viability, T/C [13]: 99.1% | viability, T/C [14]: 117% | viability, T/C [33]: 99.5% | viability, T/C [34]: 98% | viability, T/C [15]: 50.1% | viability, T/C [16]: 49.4% | viability, T/C [17]: 50.3% | viability, T/C [18]: 54.3% | viability, T/C [35]: 53% | viability, T/C [36]: 39.9% | viability, T/C [19]: 0.6% | viability, T/C [20]: 0.88% | viability, T/C [21]: 0.41% | viability, T/C [22]: 0.41% | viability, T/C [37]: 0.51% | viability, T/C [38]: 0.64% | viability, T/C [23]: 0.13% | viability, T/C [24]: 0.2% | viability, T/C [25]: 0.15% | viability, T/C [26]: 0.14% | viability, T/C [39]: 0.15% | viability, T/C [40]: 0.15% | viability, T/C [27]: 0.36% | viability, T/C [28]: 0.22% | viability, T/C [29]: 0.15% | viability, T/C [30]: 0.19% | viability, T/C [41]: 0.2% | viability, T/C [42]: 0.16%
